{
  "source": "patent US20130137573A1",
  "about": "“HERBICIDAL COMPOSITIONS COMPRISING, AND METHODS OF USE OF, HERBICIDALLY ACTIVE PYRANDIONES” (priority 2009, published 2013)",
  "key": {"[1]": {"test_system": "Leptochloa chinensis (LEFCH)", "assay": "Biological Example 1 (Test 125): visual herbicidal damage to flooded LEFCH", "type": "in vivo", "settings": "200 g/ha fenoxasulfone applied alone, 14 DAA", "procedure": "(§1) Rice seeds, variety IR-64 (an indica type of rice), were sown in seed trays. After 7 days the resulting plants were transplanted as 3 groups of 2 plants, into pots containing a standard sandy loam soil saturated with water replicating swampy conditions. These were grown on for a further 9 days in a glasshouse bay (30/20° C. day/night; 18/6 hours light/dark; 75% humidity). Leptochloa chinensis (LEFCH) and Echinochloa crus-galli (ECHCG) were sown as 2 separate groups of approx 10-20 seeds into pots 13 days prior to application of the test substances, in the same glasshouse conditions as the rice. Therefore, each pot of weeds contained a group of LEFCH and a separate group of ECHCG. All pots of rice and all pots of weeds were flooded to 2-3 cm water depth the day prior to application of the test substances. Growth stages at time of application were as follows: Rice: from 2 leaves on the main stem up to tillering; ECHCG: from 2 leaves on the main stem up to tillering; LEFCH: 2-3 leaves.\nTest solutions were prepared by mixing the appropriate aliquots of the test substances in deionised water to give the desired treatment concentration. Most of the test substances were used as formulated products. Specifically, compound A-13 was applied as the EC050 formulation disclosed in Formulation Example 1 herein (EC=emulsifiable concentrate). […]"}, "[2]": {"test_system": "Echinochloa crus-galli (ECHCG)", "assay": "Biological Example 1 (Test 125): visual herbicidal damage to flooded ECHCG", "type": "in vivo", "settings": "200 g/ha fenoxasulfone applied alone, 14 DAA", "procedure": "as §1\nTest solutions were prepared by mixing the appropriate aliquots of the test substances in deionised water to give the desired treatment concentration. Most of the test substances were used as formulated products. Specifically, compound A-13 was applied as the EC050 formulation disclosed in Formulation Example 1 herein (EC=emulsifiable concentrate). Reference compound A-4 was applied as the EC050 formulation disclosed in Reference Formulation Example 2 herein. Pyroxasulfone (a comparator co-herbicide) was applied as the SC050 formulation disclosed in Reference Formulation Example 6 herein (SC=Suspension concentrate). Imazosulfuron (a comparator co-herbicide) was applied as a GR0.25 formulation (GR=granule).\nThe test substances which were pure active ingredient (e.g. propyrisulfuron & fenoxasulfone & compound A-16) (labelled as ‘Technical’ in the following results table), were prepared by dissolving in 10.56% Emulsogen EL™ (castor oil ethoxylate, CAS Registry number 61791-12-6), 42.22% N-methylpyrrolidone and 42.22% dipropylene glycol mono-ethyl ether to give a stock solution containing 5% of the test substance and 95% of (Emulsogen EL™, N-methylpyrrolidone and dipropylene glycol mono-ethyl ether).\nApplication of the test substances was made by pipetting the required amount of the test solution or the test formulation gently into the flood water of the appropriate pot.\nThe test plants were then grown on in the same glasshouse conditions, and watered twice daily keeping the flood water at a depth of 2-3 cm.\nA visual assessment of the % herbicidal damage was made 7 & 14 days after application […], and the results are presented herein as % visual herbicidal damage where 0=no damage to plants and 100=total kill."}},
  "data": [
    {"compound": "CCOc1cc(Cl)c(CS(=O)(=O)C2=NOC(C)(C)C2)cc1Cl", "note": "[fenoxasulfone, reference compound]", "values": [
      {"measurement": "LEFCH control", "setting": "[1]", "value": 70, "unit": "%"},
      {"measurement": "ECHCG control", "setting": "[2]", "value": 65, "unit": "%"}
    ]}
  ]
}
